Test results published in PMC7967160, “Synthesis and Antiviral Evaluation of (1,4-Disubstituted-1,2,3-Triazol)-(E)-2-Methyl-but-2-Enyl Nucleoside Phosphonate Prodrugs” (Molecules, 2021).
pEC50: −log10 of the molar value. “And” between values parts separate entries of the source, which are not always exact repeats. Equal entries are not always repeated.

Assays:
in vitro [1] = test: in vitro
hepatitis B virus (HBV) = test: Anti-HBV activity of compound 6 (unpublished data); format: cell-based; details: read-out: EC50 (HBV)
in vitro [2] = details: human
HBV [3] = test: HBV assay in Huh7 cells transfected with pCI_HBVpg1820, intracapsid viral DNA by real-time PCR; format: cell-based, hepatitis B virus (HBV); details: for inhibition at 10 µM: Hepatitis B virus, Huh-7, 96 h
Protocol: In Huh7 cells: antiviral activity against HBV in cell culture was measured as previously described. Briefly, Huh7 cells were transfected with plasmid pCI_HBVpg1820 containing 1.1 unit of HBV genome under the control of a human cytomegalovirus (CMV) promoter. The drugs were stored at 1000× in DMSO at −20 °C. For each experiment, the drugs were diluted in DMEM cell culture medium (Thermo Fisher Scientific, Artenay, France) to a final concentration of 10 μM. All drugs were tested in triplicate in two independent experiments. After 4 days of culture, intracapsid viral DNA was quantified by duplex real-time PCR, using primers described elsewhere, on a LightCycler 480 II apparatus (Roche Diagnostics France, Meylan, France) using TaqMan Universal PCR Mastermix II without UNG (Thermo Fisher Scientific, Artenay, France). Cells were quantified using primers by real-time PCR, using primers HPRT1_F (5′-[…]) and HPRT1_R (5′-[…]), on a LightCycler 480 II apparatus (Roche) using a LightCycler® 480 SYBR Green I Master (Roche Diagnostics France, Meylan, France). Cycling reactions were performed with the following parameters: 5 min at 95 °C, followed by 45 cycles of 10 s at 95 °C, 15 s at 60 °C, 10 s at 72 °C. The inhibition of HBV replication (%) and cell culture viability (%) were quantified using the following formulas. Inhibition of HBV replication (%)=1− HBV DNA copy numberDrug/HBV DNA copy numberCell culture medium Cell viability (%)= HPRT1 DNA copy numberDrug/HPRT1 DNA copy numberCell culture medium

in vitro [4] = format: cell-based; details: human; PBM cells; read-out: MTS Cytotoxicity (IC50, μM) PBM
Protocol: (§1) Assays were performed in human peripheral blood mononuclear (PBM) and human liver (HepG2) cells via MTS assay using the CellTiter 96® Non-Radioactive Cell Proliferation (Promega) kit as previously described^3. Cytotoxicity was expressed as the concentration of test compounds that inhibited cell proliferation by 50% (IC50) and calculated using the Chou and Talalay method.

[5] = Cell culture viability in the Huh7 HBV assay (HPRT1 DNA copy number); details: human
HIV-1 LAI = test: HIV assay in human PBM cells infected with HIV-1 LAI, RT quantification; format: cell-based; details: Human immunodeficiency virus 1, PBMC; 10 μM, PBM cells, HIV-1 LAI
Protocol: The assay was performed as described by Schinazi et al. with minor modifications. […] The supernatants were harvested, and the HIV-1 RT was quantified.

[6] = system: SARS-CoV-2 strain BavPat1; test: SARS-CoV-2 assay in Vero E6 cells (CellTiter-Blue); details: 10 μM
[7] = Cytotoxicity MTS assay in HepG2 cells; format: cell-based; details: human
Protocol: as §1

HBV [8] = test: HBV assay in HepAD38 cells, real-time PCR for HBV DNA in supernatant; format: cell-based; details: Hepatitis B virus, 168 h, 7 days
Protocol: In HepAD38 cells were seeded at 50,000 cells/well in collagen-coated 96-well plates. Test compounds or 2′,3′-didéoxy-3′-thiacytidin (3TC) (control) were added to HepAD38 cells to a final concentration of 10 μM.
Real-Time PCR for HBV DNA. The experiment lasted 7 days. On day 7, total DNA was purified from the supernatant using a commercially available kit (DNeasy 96 Blood & Tissue kit, Qiagen). The HBV DNA was amplified in a real-time PCR assay using a LightCycler 480 (Roche) as described elsewhere. All samples were tested in duplicate in two to three independent experiments. Analysis: The concentration of compound that inhibited HBV DNA replication by 50% (EC50) was determined by linear regression.

CEM cells = system: CEM cells; design: method as in PMID 23911854; details: cited from earlier work
[9] = system: human hepatitis C virus (HCV); design: method as in PMID 23911854; details: at 10 μM; cited from earlier work
[10] = 10 μM, Huh7 cells, 4 days, read-out: HBV % Inhibition Huh7
[11] = read-out: HBV % Inhibition Huh7, 10 μM, Huh7 cells, 4 days

| Compound | CC50 (in vitro [1]) [µM] | pEC50 (hepatitis B virus (HBV)) | viability at 4 days, 10 µM (in vitro [2]) [%] | inhibition at 10 µM (HBV [3]; [10]) [%] | IC50 (in vitro [4]) [µM] | viability at 4 days, 10 µM [5] [%] | inhibition at 10 µM (HIV-1 LAI) [%] | SARS-CoV-2 % Inhibition Vero E6 [6] [%] | IC50 [7] [µM] | inhibition at 10 µM (HBV [8]) [%] | CC50 (CEM cells) [µM] | % of inhibition (HCV) [9] | HBV % Inhibition Huh7 (HBV [3]; 10 μM, Huh7 cells, 4 days) [%] | inhibition at 10 µM (HBV [3]; [11]) [%] |
| --- | --- | --- | --- | --- | --- | --- | --- | --- | --- | --- | --- | --- | --- | --- |
| C/C(=C\CP(=O)(OCOC(=O)OC(C)C)OCOC(=O)OC(C)C)Cn1cnc2c(O)nc(N)nc21 [Compound 6, bis(POC)-(E)-2-methyl-but-2-enylguanine] | > 100 | 5.07 |  |  |  |  |  |  |  |  |  |  |  |  |
| C=C1[C@H](CO)[C@@H](O)C[C@@H]1n1cnc2c(=O)[nH]c(N)nc21 [Entecavir, reference compound] |  |  | 96 | 92 |  |  |  |  |  |  |  |  |  |  |
| CCOC(=O)c1cn(C/C(C)=C/CP(=O)(OCOC(=O)OC(C)C)OCOC(=O)OC(C)C)nn1 [Compound 11o, Ethyl-1-[(E)-4-[bis(isopropoxycarbonyloxymethoxy)phosphoryl]-2-methyl-but-2-enyl]triazole-4-carboxylate] |  |  |  | < 1 | 67.5 | 60 | 22.4 | <1 | > 100 | 41.2 |  |  |  |  |
| CCCCCCCC(=O)NCc1cn(C/C(C)=C/CP(=O)(OCOC(=O)OC(C)C)OCOC(=O)OC(C)C)nn1 [Compound 11k, [[(E)-4-(4-Octanoylaminomethyltriazol-1-yl)-3-methyl-but-2-enyl]-(isopropoxycarbonyloxymethoxy)phosphoryl]oxymethyl isopropyl carbonate] |  |  |  | < 1 | 51.5 | 100 | 42 | 5 | 57.3 | 6.1 |  |  |  |  |
| C/C(=C\CP(=O)(OCOC(=O)OC(C)C)OCOC(=O)OC(C)C)Cn1cc(C(C)(C)C)nn1 [Compound 11g, [[(E)-4-(4-tert-Butyltriazol-1-yl)-3-methyl-but-2-enyl]-(isopropoxycarbonyloxymethoxy)phosphoryl]oxymethyl isopropyl carbonate] |  |  |  | 10 | 28.3 | 79 | 12.3 | <1 | > 100 | 17.3 |  |  |  |  |
| CCCc1ccc(-c2cn(C/C=C/CP(=O)(OCOC(=O)C(C)(C)C)OCOC(=O)C(C)(C)C)nn2)cc1 [Compound 5] |  |  |  |  |  |  |  |  |  |  | 55.3 | 95.6% and 95% |  |  |
| CCCCCCc1ccc(-c2cn(C/C(C)=C/CP(=O)(OCOC(=O)OC(C)C)OCOC(=O)OC(C)C)nn2)cc1 [Compound 11d, [[(E)-4-[4-(4-Hexylphenyl)triazol-1-yl]-3-methyl-but-2-enyl]-(isopropoxycarbonyloxymethoxy)phosphoryl]oxymethyl isopropyl carbonate] |  |  |  | 39 | 23.7 | 100 | 41.8 | <1 | 59.6 | 38.8 |  |  |  |  |
| CCCCCCCc1ccc(-c2cn(C/C(C)=C/CP(=O)(OCOC(=O)OC(C)C)OCOC(=O)OC(C)C)nn2)cc1 [Compound 11e, [[(E)-4-[4-(4-Heptylphenyl)triazol-1-yl]-3-methyl-but-2-enyl]-(isopropoxycarbonyloxymethoxy)phosphoryl]oxymethyl isopropyl carbonate] |  |  |  |  | 9.2 | 95 | 29.9 | <1 | 90.8 | 33.5 |  |  | 50 | > 40 |
| CCCCCCCCCCCCCCCCOCCCOP(=O)(C/C=C(\C)Cn1cc(C(N)=O)nn1)OCOC(=O)OC(C)C (centres unmarked) [Compound 15j, [[(E)-4-(4-Carbamoyltriazol-1-yl)-3-methyl-but-2-enyl]-(3-hexadecyloxypropoxy)phosphoryl]oxymethyl isopropyl carbonate] |  |  |  | 62 | 43.1 | 74 | 32.2 | <1 | 66.4 | < 1 |  |  |  |  |
| C/C(=C\CP(=O)(OCOC(=O)OC(C)C)OCOC(=O)OC(C)C)Cn1cc(C=O)nn1 [Compound 11i, [[(E)-4-(4-Formyltriazol-1-yl)-3-methyl-but-2-enyl]-(isopropoxycarbonyloxymethoxy)phosphoryl]oxymethyl isopropyl carbonate] |  |  |  | 33 | 75.1 | 95 | 28.4 | <1 | > 100 | 6.1 |  |  |  |  |
| C/C(=C\CP(=O)(OCOC(=O)OC(C)C)OCOC(=O)OC(C)C)Cn1cc(C(N)=O)nn1 [Compound 11j, [[(E)-4-(4-Carbamoyltriazol-1-yl)-3-methyl-but-2-enyl]-(isopropoxycarbonyloxymethoxy)phosphoryl]oxymethyl isopropyl carbonate] |  |  |  |  | 76.8 | 100 | < 1 | <1 | > 100 | 31.3 |  |  | 40 | > 40 |
| C/C(=C\CP(=O)(OCOC(=O)OC(C)C)OCOC(=O)OC(C)C)Cn1cc(CO)nn1 [Compound 11h, [[(E)-4-[4-(Hydroxymethyl)triazol-1-yl]-3-methyl-but-2-enyl]-(isopropoxycarbonyloxymethoxy)phosphoryl]oxymethyl isopropyl carbonate] |  |  |  | 28 | 76.4 | 100 | < 1 | 12 | > 100 | 15.1 |  |  |  |  |
